Results: patent US20090117545A1 (priority 2004, published 2009)
Where “and” joins values, the source holds several entries; their conditions need not be identical. Identical values can stand only once. Entries after “also recorded” stand apart in the source; their conditions may differ.

Tests used:
[1] = test system: VC II RNA (type II glycine aptamer alone); test: In-line probing of VC II RNA; format: binding, Vibrio cholerae; conditions: for EC50: in-line probing, read-out: concentration of ligand needed to cause half-maximal structure modulation of VC II
[2] = test system: gcvT 5'-UTR glycine riboswitch; test: Single-round in vitro transcription termination assay; format: biochemical, Bacillus subtilis; conditions: for effect on production of full-length RNA transcripts: single-round in vitro transcription
Description: Transcription termination assays were conducted as described previously (Sudarsan et al., Genes Dev. 17, 2688 (2003); Landick et al., Methods Enzymol. 274, 334 (1996)).
Transcription assays were performed using a method adapted from that described earlier (Edelstein, Annu. Rev. Biochem. 44, 209 (1975)). […] DNA templates encompassing nucleotides −406 to +7 relative to the translation start site for the gcvT operon in B. subtilis were used. Transcription assays included 20 mM Tris-HCl (pH 8.0 at 23° C.), 20 mM NaCl, 14 mM MgCl2, 0.1 mM EDTA, 0.01 mg/mL BSA, and 1% v/v glycerol. Each reaction (10 μL) contained 1 pmole of template DNA and 9 U E. coli RNA polymerase (Epicenter) and was conducted with the type and concentration of target molecule as indicated for each experiment. Transcription was initiated by the addition of the dinucleotide ApA (135 μM), GTP and UTP (2.5 μM each), ATP (1 μM), and [α-^32P]-ATP (4_Ci). After 5 min incubation at 37° C., 50 μM of each NTP was added along with 0.1 mg/mL heparin to prevent re-initiation by RNA polymerase. Transcription products generated after a 10 minute incubation were separated by denaturing 6% PAGE and visualized by using a PhosphorImager. […] Single-round transcription assays were conducted as described for FIG. 9A. […] Single-round transcription assays were conducted as described for FIG. 9A with 50 μM rNTPs.

[3] = test system: VC II RNA; test: Equilibrium dialysis with 3H-glycine, VC II RNA; format: binding, Vibrio cholerae; conditions: for restoration of equal distribution of 3H-glycine by unlabeled competitor: VC II 100 μM, excess (1 mM) unlabeled competitor after preequilibration
Description: (§1) Methods used for equilibrium dialysis were similar to those described in Mandal et al., Cell 113, 577 (2003). Specifically, equilibrium dialysis assays were conducted using a DispoEquilibrium Dialyzer (Harvard Biosciences), wherein chamber a and b are separated by a 5,000 MWCO membrane. […] Chamber b contained VC II or VC I-II RNA transcripts at 100 μM concentration suspended in the same buffer. Equilibrations were allowed to proceed for 10 hrs at 23° C. Subsequently 5 μL of sample was drawn from each chamber and quantitated by liquid scintillation counting. […] For both RNAs, experiments i-iii (FIG. 4B) were conducted by first pre-equilibrating the chambers (left data point), and then adding unlabeled competitor as indicated followed by a second equilibration (right data point). RNAs were prepared by in vitro transcription using the appropriate PCR DNA templates as described above.
(§2) Other notations are the same as those described for FIG. 1C.

[4] = test system: VC I-II RNA (tandem type I and type II glycine aptamers, VC1422 gene); test: In-line probing of VC I-II RNA; format: binding, Vibrio cholerae; conditions: for structural modulation (change in pattern of spontaneous cleavage) of VC I-II: ligand at 1 mM
Description: In-line probing of the VC I-II construct (FIG. 1B), derived from the VC1422 gene from V. cholerae, was carried out with trace amounts of 5′ ^32P-labeled RNA using methods that are similar to those described elsewhere in Nahvi et al., Chem. Biol. 9, 1043 (2002), and Winkler et al., Nature 419, 952 (2002). RNAs were prepared by transcription from the appropriate DNA template carrying a T7 RNA polymerase promoter, which was generated by PCR from V. cholerae (C6706-st2) genomic DNA using the primers 5′-[sequence]-[sequence] […] The underlined nucleotides identify sequences corresponding to the promoter for T7 RNA polymerase.
In a typical in line probing assay, ˜15 nM of labeled RNA is incubated in buffer (20 mM MgCl2, 50 mM Tris, pH 8.3 at 25° C., 100 mM KCl) in the absence or presence of ligand for 40 hrs at 23° C. After incubation, spontaneously cleaved products were separated using 10% denaturing PAGE and were visualized and quantitated using a PhosphorImager (Molecular Dynamics).
Lowercase letters in FIG. 1B and FIG. 8A identify nucleotides that were added to the construct to permit efficient transcription in vitro using RiboMAX transcription (Promega). For the data presented in FIG. 5, fraction bound equals 1 minus the normalized fraction cleaved in the in-line probing assay at U207-C208 for VC II and U74 for VC I-II.
Curves for the absence of cooperativity (blue curve, n=1) and presence of perfect cooperativity at two binding sites (orange curve, n=2) are depicted. […] The fraction of RNA cleaved at four regions in both RNA constructs was determined by in-line probing. The amount of cleavage was normalized to range from 0 to 1 using the minimum and maximum amounts cleaved for each region.

[5] = test system: VC I-II RNA; test: Equilibrium dialysis with 3H-glycine, VC I-II RNA; format: binding, Vibrio cholerae; conditions: for restoration of equal distribution of 3H-glycine by unlabeled competitor: VC I-II 100 μM, excess (1 mM) unlabeled competitor after preequilibration
Description: as §1, §2

[6] = test system: variant VC I-II construct wherein aptamer II has been mutated; conditions: relative to wild-type VC I-II
[7] = test system: wild-type gcvT IGR fused to β-galactosidase reporter gene; conditions: amino acid present in growth medium
Description: Specifically, nucleotides −429 to +7 relative to the B. subtilis gcvT translation start site of the first open reading frame of the gcvT operon was PCR amplified as an EcoRI-BamHI fragment from B. subtilis strain 1A2 (Bacillus Genetic Stock Center, Columbus, Ohio). The wild type construct was cloned into pDG1661 at a site directly upstream of the lacZ reporter gene. […] The IGR used for this study (FIG. 8A) differed in sequence at three nucleotides (151-153, TTT to AAA) relative to the genomic database. Plasmids generated were integrated into the amyE locus of strain 1A2. Transformants were selected for chloramphenicol (5 μg/ml) resistance and screened for sensitivity to spectinomycin (100 μg/ml). Cells were grown in defined media (0.5% w/v glucose, 2 g/L (NH4)2SO4, 25 g/L K2HPO4-3H2O, 6 g/L KH2PO4, 1 g/L sodium citrate, 0.2 g/L MgSO4-7H2O, 2 μM MnCl2, 15 mM glutamate, and 5 mg/L chloramphenicol) to an A595 of 0.1, pelleted, and resuspended in minimal media supplemented with 500 μg/L of amino acid as indicated for each experiment. Cultures were incubated for an additional 3 hr and β-galactosidase assays were performed as described previously (Miller, A Short Course in Bacterial Genetics (Cold Spring Harbor Laboratory Press, Cold Spring Harbor, N.Y., 1992)). Miller units plotted are the average of six values (three assays conducted in duplicate).

Compound | EC50 [1] [µM] | effect on production of full-length RNA transcripts [2] | restoration of equal distribution of 3H-glycine by unlabeled competitor [3] | structural modulation (change in pattern of spontaneous cleavage) of VC I-II [4] | restoration of equal distribution of 3H-glycine by unlabeled competitor [5] | also measured
NCC(=O)O [glycine] | ~10 | substantial increase in the amount of full-length RNA transcript | restored an equal distribution | caused changes in the pattern of spontaneous cleavage | restored an equal distribution | Hill constant n ([1]; VC II, best fit of four regions): 0.97±0.04; Kd ([1]; VC II, best fit of four regions, read-out: constant K of Hill equation): 24 ± 12 µM; increase in glycine concentration for change from 10% to 90% ligand-bound RNA ([1]; single aptamer RNA, printed as VC I RNA): 100 fold; glycine concentration at which full-length transcripts are favored ([2]; added to transcription mixture): > 10 µM; Hill coefficient of best-fit curve to transcription data ([2]; yield of full-length transcripts versus glycine): 1.4; equivalents of glycine bound by RNA ([3]; three equivalents of glycine versus one equivalent of VC II RNA (100 μM), 1 expected): 0.8 equivalents; increase in glycine concentration for change from 10% to 90% ligand-bound RNA ([4]; VC I-II): 10 fold; Hill coefficient n ([4]; VC I-II, best fit of four regions, maximum for two sites is 2): 1.64 and 1.64±0.07; Kd ([4]; VC I-II, best fit of four regions, read-out: constant K of Hill equation): 40 ± 1 µM; increase in the amount of glycine bound by RNA ([5]; one equivalent of VC I-II RNA (two aptamer equivalents) versus VC II, 2 expected): 1.6 fold; loss of affinity in the unaltered aptamer I [6]: more than 1,000 fold
CC(C)(C)OC(=O)CN [glycine tertiary butyl ester, glycine tert-butyl ester] | ~1000 | – | – | measurable structural modulation | – | –
N[C@@H](CO)C(=O)O [L-serine] | – | rejected; also recorded: failed to trigger an increase | failed to restore equal distribution | – | failed to restore equal distribution | –
COC(=O)CN [glycine methyl ester] | ~100 | – | – | measurable structural modulation | – | –
C[C@H](N)C(=O)O [L-alanine] | – | failed to trigger an increase | failed to restore equal distribution | did not induce change | failed to restore equal distribution | expression of β-galactosidase reporter [7]: low amount of gene expression
NCC(=O)NO [glycine hydroxamate] | ~1000 | – | – | – | – | –
